The assay concerns the target T1, full-length His6-JMJD6 (Homo sapiens, UniProt Q6NYC1).
T1 construct: An enzyme mixture (10 μL) containing full-length His6-JMJD6 (5 μM; final concentration: 0.05 μM); made in house; host or cells: Escherichia coli BL21 (DE3), pET-28a(+) plasmid
Kind of assay: SPE-MS time-course of JMJD6-catalysed hydroxylation of BRD-derived peptides. Type of assay: biochemical. The note with it: 0.05 μM JMJD6, 2 μM peptide, 2OG 200 μM, FAS 2 μM, LAA 100 μM, Tris 50 mM pH 7.5. The protocol:
Fig. 2 JMJD6-catalysed hydroxylation of homologous 40 mer peptides derived from bromodomain-containing proteins BRD2, BRD3, and BRD4. (a)–(c) Red MS spectra: JMJD6-catalysed hydroxylation after 10 min of (a) BRD2_520–559, (b) BRD3_463–502, and (c) BRD4_511–550. Black MS spectra: no enzyme controls. (d)–(f) JMJD6-catalysed hydroxylation of (d) BRD2_520–559, (e) BRD3_463–502, and (f) BRD4_511–550 showing the relative abundance of the non-hydroxylated substrate (orange circles), mono-hydroxylated product (green squares), di-hydroxylated product (purple triangles) and tri-hydroxylated product (light blue diamonds) over time. Data are means of three independent runs (n = 3; means ± SD).
The JMJD6-catalysed hydroxylation of the BRD-derived substrate peptide was monitored at ambient temperature by SPE-MS using a RapidFire RF 365 high-throughput sampling robot (Agilent) attached to an iFunnel Agilent 6550 accurate mass quadrupole time-of-flight (Q-TOF) mass spectrometer, which was operated in the positive ionization mode. Assay samples were aspirated under vacuum for 0.4 s, then loaded onto a C4 solid phase extraction (SPE) cartridge. After loading, the C4 SPE cartridge was washed with 0.1%v/v aqueous formic acid to remove non-volatile buffer salts (5 s, 1.5 mL min^−1). The peptide was eluted from the SPE cartridge with 0.1%v/v aqueous formic acid in 75/25v/v acetonitrile/water into the mass spectrometer (5 s, 1.6 mL min^−1) and the SPE cartridge re-equilibrated with 0.1%v/v aqueous formic acid (1 s, 1.25 mL min^−1).
Peaks corresponding to the m/z +5 charge states of the BRD-derived substrate peptide and the hydroxylated product peptides were extracted from the ion chromatogram and integrated using RapidFire Integrator 4.3.0 (Agilent). Peak area data were exported into Microsoft Excel and used to calculate the relative abundance of the mono-hydroxylated product peptide using the following equation:
% of mono-hydroxylated product peptide = 100 × (integral of mono-hydroxylated product peptide)/(integral of non-hydroxylated substrate peptide + sum of integrals of all hydroxylated product peptides). Note that for the time-period used to calculate initial reaction velocities, negligible amounts of multi-hydroxylated product peptide were observed (<5%); therefore, the sum of integrals of all hydroxylated product peptides ≈ the integral of the mono-hydroxylated product peptide.

“Also recorded” adds a separate entry of the source.

“LAELQEQLKAVHEQLAALSQPQQNKPKKKEKDKKEKKKEK [BRD4_511–550, 40-mer peptide fragment derived from human BRD4, JMJD6 substrate, prepared by SPPS]”: the “number of hydroxylation products observed (+16 Da mass shifts)” value (initial time-course, n = 3) is reported as “two”. Also, for the setting “time-course, SPE-MS”, the “hydroxylation by JMJD6 (in words)” value is “efficiently hydroxylated by isolated recombinant JMJD6; also recorded: mono-hydroxylated more efficiently than BRD3_463–502 whilst showing substantially lower levels of di-hydroxylation and no tri-hydroxylation by comparison with BRD2_520–559; also recorded: multiple hydroxylations”.

The record behind these values is PMC11878239, “Biochemical investigations using mass spectrometry to monitor JMJD6-catalysed hydroxylation of multi-lysine containing bromodomain-derived substrates” (RSC Chemical Biology, 2025).
